Measured values reported in patent publication US20240043860A1, “NOVEL HYDROXYPHENYLPYRUVATE DIOXYGENASE POLYPEPTIDES AND METHODS OF USE THEREOF” (Syngenta Crop Protection AG, priority 2020, published 2024).
pIC50: −log10 of the molar value. Values joined by “and” are separate entries in the source; they are usually repeats but may differ in a detail not shown here. Identical values can stand only once. Like-named read-outs stand apart in the source and are kept apart here.

Legend:
[1] = test system: transgenic tobacco plants expressing mutant HPPD SEQ ID NO: 9; experiment: spray test, herbicidal damage scoring; assay type: in vivo
Experimental: (§1) Avena sativa HPPD or orthologues and variants thereof, for example SEQ IDs 1-63 and 122-127, were expressed in transgenic tobacco. DNA sequences that encode these polypeptides (optimized for tobacco or, optionally, codon optimized according to a target crop such as soybean) were prepared synthetically. Each sequence was designed to include a 5′ fusion with TMV omega 5′ leader sequence such that they are flanked at the 5′ end with XhoI and at the 3′ end with KpnI to facilitate direct cloning into a suitable binary vector for Agrobacterium-based plant transformation.
In one example, the TMV omega 5′ leader and a HPPD encoding gene of interest is excised using XhoI/KpnI and cloned into similarly digested binary vector pBIN 19 (Bevan, Nucl. Acids Res. (1984) behind a double enhanced 35S promoter ahead of a NOS 3′ transcription terminator and then transformed into E. coli DH5 alpha competent cells. DNA recovered from the E. coli is used to transform Agrobacterium tumefaciens LBA4404, and transformed bacteria are selected on media contain rifampicin and kanamycin. Tobacco tissue is subjected to Agrobacterium-mediated transformation using methods well described in the art or as described herein. For example, a master plate of Agrobacterium tumefaciens containing the HPPD expressing the binary vector is used to inoculate 10 ml LB (L broth) containing 100 mg/l Rifampicin plus 50 mg/l Kanamycin using a single bacterial colony. This is incubated overnight at 28° C. shaking at 200 rpm. This entire overnight culture is used to inoculate a 50 ml volume of LB containing the same antibiotics. Again this is cultured overnight at 28° C. shaking at 200 rpm. […]
(§2) Plants are assessed for damage and scored at, for example, 7 and 14 days after treatment (DAT). […]
Plants of events showing the least damage are grown to flowering, then bagged and allowed to self. […] Single copy events amongst the Ti plant lines are identified by their 3:1 segregation ratio (with respect to kanamycin and/or herbicide) and by quantitative RT-PCR. […] HPPD expression levels were monitored by Western analysis. […]

[2] = test system: transgenic tobacco plants expressing mutant HPPD SEQ ID NO: 125; experiment: spray test, herbicidal damage scoring; assay type: in vivo
[3] = target: HPPD variant AVESA V201 (SEQ ID NO: 8) (Avena sativa, UniProt A0ACD5V6K6, A327R/G411A/I340E/L359M/V218I/V260A); assay type: biochemical; conditions: AVESA V201, SEQ ID NO: 8
Experimental: (§3) 25 ul of the overnight cultures were inoculated into fresh 96-deepwell block containing 1 ml Formedium Autoinduction Media (AIM). The AIM cultures were grown for 3h at 37° C. (900rpm) and then transferred to 20° C. overnight (900rpm) to allow protein expression. The overnight cultures were centrifuged and 500 ul of Cellytic B (Sigma Aldrich) was added to resuspend the cell pellets. The coupled HGO assay (Siehl et al, 2014) is used to generate IC50 values for the HPPD variants of interest.
(§4) E. coli BL21 (DE3) cells were transformed with a pET24a vector containing a C-terminally his-tagged Arabidopsis HGO gene, grown and induced overnight as described for the HPPD variants above. The cell pellet was resuspended in phosphate buffered saline at pH 7.4 containing 10% Glycerol, 1mm Tris[2-carboxyethyl] phosphine-HCl (TCEP) plus 30 mM Imidazole and lysed using lysozyme/benzonase. The extract was clarified by low speed centrifugation and purified in the same buffer down a 1 ml His Gravitrap column. The bound HGO was eluted in 0.25M imidazole and the fractions pooled and beaded into liquid nitrogen. All procedures apart from the centrifugation and beading steps were carried out under a nitrogen atmosphere.
(§5) The coupled HGO assay is carried out by adding 10 ul of HPPD extract to a 96-well plate and then adding 40 ul of reaction buffer (50 mM Bis Tris Propane, pH7.0, 25 mM sodium-L-ascorbate, 400μM mercaptoethanol, 50 μM Fe(II)SO4). The plates are left to incubate for 5 minutes on ice. […] 200 ul of HPP/HGO (197 μM hydroxyphenylpyruvic acid, 16 μl/ml Homogentisic Acid Oxidase in reaction buffer as described above) buffer is then added to the well and the reaction is regularly monitored (e.g. every 30 seconds-5 minutes) for absorbance at 330 nm for a given time period (e.g., for between 15-60 minutes). The data can then be used to calculate the IC50 value for each HPPD variant of interest.

[4] = target: HPPD variant AVESA V307 (SEQ ID NO: 35) (Avena sativa, UniProt A0ACD5V6K6, A327R/I340E/L359M/P271N/R214G/V218I/V260A); experiment: biochemical; assay type: biochemical
Experimental: as §3, §4, §5

[5] = test system: transgenic tobacco plants expressing mutant HPPD SEQ ID 20; experiment: spray test, herbicidal damage scoring; assay type: in vivo; conditions: several events expressing SEQ ID 20; 800 g/ha (Table 3.3)
Experimental: as §1, with “transformation. […]” for “transformation.”
as §2
Plants of events showing the least damage are grown to flowering, then bagged and allowed to self. […] Single copy events amongst the Ti plant lines are identified by their 3:1 segregation ratio (with respect to kanamycin and/or herbicide) and by quantitative RT-PCR. […] HPPD expression levels were monitored by Western analysis.
The tobacco lines expressing SEQ ID 122 were now compared to a population of tobacco which express SEQ ID 20. The plants were sprayed with 800g/ha Bicyclopyrone and scored for damage.

HPPD variant AVESA V307 (SEQ ID NO: 35), sequence (A0ACD5V6K6 entry or part of it R214G/V218I/V260A/P271N/A327R/I340E/L359M): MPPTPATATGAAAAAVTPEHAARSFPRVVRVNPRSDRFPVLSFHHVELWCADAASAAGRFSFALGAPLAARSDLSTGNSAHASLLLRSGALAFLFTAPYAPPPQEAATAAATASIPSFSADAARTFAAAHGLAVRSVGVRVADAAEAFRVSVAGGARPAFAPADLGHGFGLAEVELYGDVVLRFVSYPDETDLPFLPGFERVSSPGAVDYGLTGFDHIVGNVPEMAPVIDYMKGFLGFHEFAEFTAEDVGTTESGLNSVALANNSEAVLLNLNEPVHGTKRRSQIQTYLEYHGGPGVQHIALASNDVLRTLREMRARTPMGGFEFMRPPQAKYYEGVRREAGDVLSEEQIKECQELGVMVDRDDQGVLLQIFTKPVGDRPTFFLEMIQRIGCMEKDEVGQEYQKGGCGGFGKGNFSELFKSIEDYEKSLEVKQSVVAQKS
HPPD variant AVESA V201 (SEQ ID NO: 8), sequence (A0ACD5V6K6 entry or part of it V218I/V260A/A327R/I340E/L359M/G411A): as the sequence (A0ACD5V6K6 entry or part of it R214G/V218I/V260A/P271N/A327R/I340E/L359M) above, with G214R, N271P, G411A counted along it

Compound: COc1ccc(-n2nc(C)cc(C(=O)C3C(=O)CCCC3=O)c2=O)cc1OC [Herbicide C, dioxopyritrione]
- tolerance ([1]; SEQ ID 9 plants, 100 g/ha (Table 3.4)): display tolerance
- tolerance compared to plants expressing SEQ ID 125 ([1]; SEQ ID 9 plants, 200 g/ha (Table 3.4)): higher tolerance
- tolerance ([2]; SEQ ID 125 plants, 100 g/ha (Table 3.4)): display tolerance
- herbicidal damage scoring, Herbicide C (200 g/ha) ([2]; Table 3.4, 14 days after treatment, SEQ ID 125, 100=complete death, 0=no damage, one value per event): 60 and 80 and 75 and 85
- pIC50 [3]: 6.05
- pIC50 ([4]; AVESA V307, SEQ ID NO: 35, read-out: IC50): > 6.72

Compound: Cn1nnnc1NC(=O)c1ccc(C(F)(F)F)nc1-n1cncn1 [Herbicide D, N-(1-methyltetrazol-5-yl)-2-(1,2,4-triazol-1-yl)-6-(trifluoromethyl)pyridine-3-carboxamide]
- damage ([1]; 2000 g/ha, SEQ ID 9 plants compared to plants expressing SEQ IDs 122, 124 or 125): significantly reduced damage
- pIC50 [4]: 3.58

Compound: bicyclopyrone
- pIC50 [3]: < 3.30
- tolerance in comparison to events expressing SEQ ID 122 [5]: increased tolerance
